Read-outs that look alike come from different tables or passages of the source.
Key:
[1] = test system: Human Breast Adenocarcinoma Cell Line MDA-MB-231; assay: Drug cytotoxicity testing (viable cell count, trypan blue exclusion, cell growth inhibition); assay type: cell-based; settings: for inhibition at 0.1 µM / inhibition at 0.01 µM / inhibition at 0.001 µM: Homo sapiens; for cell growth inhibition in (A) compared to compound in B / cell growth inhibition reached on increase of the concentration, in (B): sodium salt, range 10^-9 to 10^-7 M; for cell growth inhibition reached on increase of the concentration, in (B): dilution in normal saline (B)
Protocol: MDA-MB-231 cells were propagated in MEM culture medium with 2 mM L-glutamine, 10% heat-inactivated fetal bovine serum (FBS) and antibiotics. DU 145 cells were cultured in MEM culture medium containing 2 mM L-glutamine, 1 mM sodium pyruvate, 10% FBS and antibiotics. SKOV-3 cells were cultured in McCoy's 5A culture medium, supplemented with 1,5 mM L-glutamine, 10% FBS and antibiotics. A549 cells were cultured in Ham's F-12 culture medium with 1 mM L-glutamine, 10% FBS and antibiotics. All media and supplements were purchased from Sigma-Aldrich (St.Louis, MO, USA). Cell propagation of all lines was carried out in Falcon™ 25 cm^2 cultivation flasks (Becton Dickinson Labware).
Drug cytotoxicity testing was carried out with using Falcon™ 96-well cultivation plates for adherent cells (Becton Dickinson Labware). These plates were seeded by cells either at 12 × 10^3 MDA-MB-231 cells/well, or at 12 × 10^3 DU 145 cells/well, or at 14 × 10^3 SKOV-3 cells/well, or at 10 × 10^3 A549 cells/well in a volume of 200 µL/well.
The cell cultures in cultivation plates were allowed to adhere for 24 hour of incubation. On day 1 after cell seeding, 2 µL solutions of the drugs to be tested in medium with 5% FBS was added to the cultures. In the control cultures, 2 µL of medium with 5% FBS was added as solvent control. The cells were incubated for 2 consecutive days. At the end of the incubation period adherent cells were detached by trypsinization and the number of viable cells was counted using trypan blue exclusion test and a hemocytometer. All data were derived from an average of three determinations each in six replicates. The results were expressed as mean cell number ± SE and the differences between control and test series evaluated by means of Student's t-test. The drug cytotoxicity was evaluated based on the extent of cell growth inhibition. The cell growth inhibition of the tested drugs was calculated as follows: Cell growth inhibition,% = (Control-TestSeries)/(Control) × 100 [formula]
In the case of comparative evaluation of cytotoxicity of the inventive compounds themselves and the formulation related to consecutive dilutions of their initial solutions before adding to the cultures, 2 µL solutions of the drugs to be tested in medium with 5% FBS, in normal saline and in saline with 2,3 mM CaCl2 were added to the cultures. In control cultures, 2 µL of medium with 5% FBS, normal saline and saline with 2,3 mM CaCl2 were added as solvent controls (negative controls). […] Therefore an average of negative controls was calculated. […] Therefore an average of positive controls was calculated (for each antibiotic).

[2] = rat, in vivo, ip; for mortality: 100 mg/kg
Protocol: A single dose i.p. toxicity study in rats was carried out. […] The minimal lethal dose is thus above 100 mg/kg body weight for these compounds.

[3] = MDA-MB-231, 48 h, compound alone, final concentration 10^-7 mol/L, working solutions in MEM with 5% FBS, two days, read-out: cell growth inhibition
[4] = MDA-MB-231, 48 h, compound alone, final concentration 10^-8 mol/L, working solutions in MEM with 5% FBS, two days, read-out: cell growth inhibition
[5] = MDA-MB-231, 48 h, compound alone, final concentration 10^-9 mol/L, working solutions in MEM with 5% FBS, two days, read-out: cell growth inhibition
[6] = MDA-MB-231, compound alone 10^-7 mol/L, in A (saline with […] CaCl2), read-out: cell growth inhibition
[7] = MDA-MB-231, compound alone 10^-7 mol/L, in B (normal saline), read-out: cell growth inhibition
[8] = MDA-MB-231, compound alone 10^-7 mol/L, read-out: Cell growth inhibition in A compared to that in B was increased by
[9] = MDA-MB-231, compound alone 10^-8 mol/L, in A (saline with […] CaCl2), read-out: cell growth inhibition
[10] = MDA-MB-231, compound alone 10^-8 mol/L, in B (normal saline), read-out: cell growth inhibition
[11] = MDA-MB-231, compound alone 10^-8 mol/L, read-out: Cell growth inhibition in A compared to that in B was increased by
[12] = MDA-MB-231, compound alone 10^-9 mol/L, in A (saline with […] CaCl2), read-out: cell growth inhibition
[13] = MDA-MB-231, compound alone 10^-9 mol/L, in B (normal saline), read-out: cell growth inhibition
[14] = MDA-MB-231, compound alone 10^-9 mol/L, read-out: Cell growth inhibition in A compared to that in B was increased by
[15] = compound alone 10^-7 mol/L, in B (normal saline)
[16] = compound alone 10^-8 mol/L, in B (normal saline)
[17] = compound alone 10^-9 mol/L, in B (normal saline)
[18] = compound alone, final concentration 10^-7 mol/L, working solutions in MEM with 5% FBS, two days
[19] = compound alone, final concentration 10^-8 mol/L, working solutions in MEM with 5% FBS, two days
[20] = compound alone, final concentration 10^-9 mol/L, working solutions in MEM with 5% FBS, two days

Compound | inhibition at 0.1 µM [1, 3] [%] | inhibition at 0.01 µM [1, 4] [%] | inhibition at 0.001 µM [1, 5] [%] | inhibition at 0.1 µM [1, 7] [%] | inhibition at 0.1 µM [1, 8] [%] | inhibition at 0.01 µM [1, 9] [%] | inhibition at 0.01 µM [1, 10] [%] | inhibition at 0.01 µM [1, 11] [%] | inhibition at 0.001 µM [1, 12] [%] | inhibition at 0.001 µM [1, 13] [%] | inhibition at 0.001 µM [1, 14] [%] | number of viable cells [1, 15] | number of viable cells [1, 16] | number of viable cells [1, 17] | number of viable cells [1, 18] | number of viable cells [1, 19] | number of viable cells [1, 20] | cell growth inhibition in (A) compared to compound in B [1] [%] | minimal lethal dose [2] | mortality [2] | also measured
CC1=C(/C=C/C(C)=C/C=C/C(C)=C/C(=O)N[C@@H](CS(=O)(=O)O)C(=O)N(C)C)C(C)(C)CCC1 [compound I-1h, N-(all-trans-retinoyl)-L-cysteic acid dimethylamide] | 46.4 | 39.6 | 32 | 26 | 21.3 | 34.2 | 17.4 | 20.4 | 26.7 | 7 | 21.1 | 41.3 ± 0.99 × 10^3 | 46.1 ± 2.65 × 10^3 | 51.9 ± 3.46 × 10^3 | 30.3 ± 1.55 × 10^3 | 34.1 ± 1.89 × 10^3 | 38.4 ± 2.11 × 10^3 | ~21 | above 100 mg/kg body weight | did not produce mortality | inhibition at 0.1 µM [1, 6]: 41.8%
COC(=O)[C@H](CCS(=O)(=O)O)NC(=O)/C=C(C)/C=C/C=C(C)/C=C/C1=C(C)CCCC1(C)C [compound I-3a, N-(all-trans-retinoyl)-L-homocysteic acid methyl ester] | 49 | 38.2 | 29.2 |  |  |  |  |  |  |  |  |  |  |  | 28.8 ± 1.15 × 10^3 | 34.9 ± 1.64 × 10^3 |  |  | above 100 mg/kg body weight | did not produce mortality | 
CC1=C(/C=C/C(C)=C/C=C/C(C)=C/C(=O)N[C@@H](CCS(=O)(=O)O)C(N)=O)C(C)(C)CCC1 [compound I-3f, N-(all-trans-retinoyl)-L-homocysteic acid amide] | 55.2 | 48.7 | 41.4 | 40.8 | 21.6 | 46.8 | 32.1 | 21.5 | 39 | 21.8 | 21.9 | 32.8 ± 0.99 × 10^3 | 37.6 ± 1.52 × 10^3 | 43.3 ± 2.88 × 10^3 | 25.3 ± 0.76 × 10^3 | 29.0 ± 1.32 × 10^3 | 33.1 ± 1.90 × 10^3 | ~22 | above 100 mg/kg body weight | did not produce mortality | inhibition at 0.1 µM [1, 6]: 53.6%; cell growth inhibition reached on increase of the concentration, in (B) [1]: ~41%
CC1=C(/C=C/C(C)=C/C=C/C(C)=C\C(=O)N[C@@H](CS(=O)(=O)O)C(N)=O)C(C)(C)CCC1 [compound II-1f, N-(13-cis-retinoyl)-L-cysteic acid amide] | 53.2 | 49.8 | 45.1 | 45.8 | 15.4 | 47.4 | 37.3 | 16.1 | 40.1 | 27.2 | 17.7 | 31.1 ± 0.96 × 10^3 | 36.0 ± 1.28 × 10^3 | 41.8 ± 1.46 × 10^3 | 26.6 ± 1.83 × 10^3 | 28.5 ± 2.13 × 10^3 | 31.2 ± 2.42 × 10^3 | ~15 | above 100 mg/kg body weight | did not produce mortality | cell growth inhibition reached on increase of the concentration, in (B) [1]: ~46%
CCOC(=O)[C@H](CCS(=O)(=O)O)NC(=O)\C=C(C)/C=C/C=C(C)/C=C/C1=C(C)CCCC1(C)C [compound II-3b, N-(13-cis-retinoyl)-L-homocysteic acid ethyl ester] | 62.1 | 55.4 | 47.8 | 44.4 | 28.9 | 53.6 | 35.7 | 27.8 | 46 | 25.3 | 27.8 | 30.8 ± 1.60 × 10^3 | 35.6 ± 1.97 × 10^3 | 41.4 ± 2.15 × 10^3 | 21.4 ± 0.88 × 10^3 | 25.2 ± 1.27 × 10^3 | 29.5 ± 1.21 × 10^3 | ~29 | above 100 mg/kg body weight | did not produce mortality | inhibition at 0.1 µM [1, 6]: 60.5%; cell growth inhibition reached on increase of the concentration, in (B) [1]: ~44%
